Data from article PMC3482212, “Autoinducers Act as Biological Timers in Vibrio harveyi” (PLoS ONE, 2012).

Legend:
LuxN = LuxN (Vibrio campbellii, UniProt A7MRY4); test: biochemical; conditions: read-out: % inhibition at 10 μM
[1] = target: T1, LuxPQ (LuxQ in interplay with LuxP) (Vibrio harveyi, UniProt P54300); test: inhibition of LuxU phosphorylation by [gamma-32P]ATP, membrane vesicles, SDS-PAGE autoradiography; type: biochemical; conditions: read-out: half-maximal inhibition
T1 construct: full-length wild-type LuxQ with C-terminal His6 in inverted membrane vesicles of E. coli TKR2000 (pNKQ); read-out phosphorylation of purified His6-LuxU; with Autoinducer 2 sensor kinase/phosphatase LuxQ
T1 sequence (P54302 whole entry): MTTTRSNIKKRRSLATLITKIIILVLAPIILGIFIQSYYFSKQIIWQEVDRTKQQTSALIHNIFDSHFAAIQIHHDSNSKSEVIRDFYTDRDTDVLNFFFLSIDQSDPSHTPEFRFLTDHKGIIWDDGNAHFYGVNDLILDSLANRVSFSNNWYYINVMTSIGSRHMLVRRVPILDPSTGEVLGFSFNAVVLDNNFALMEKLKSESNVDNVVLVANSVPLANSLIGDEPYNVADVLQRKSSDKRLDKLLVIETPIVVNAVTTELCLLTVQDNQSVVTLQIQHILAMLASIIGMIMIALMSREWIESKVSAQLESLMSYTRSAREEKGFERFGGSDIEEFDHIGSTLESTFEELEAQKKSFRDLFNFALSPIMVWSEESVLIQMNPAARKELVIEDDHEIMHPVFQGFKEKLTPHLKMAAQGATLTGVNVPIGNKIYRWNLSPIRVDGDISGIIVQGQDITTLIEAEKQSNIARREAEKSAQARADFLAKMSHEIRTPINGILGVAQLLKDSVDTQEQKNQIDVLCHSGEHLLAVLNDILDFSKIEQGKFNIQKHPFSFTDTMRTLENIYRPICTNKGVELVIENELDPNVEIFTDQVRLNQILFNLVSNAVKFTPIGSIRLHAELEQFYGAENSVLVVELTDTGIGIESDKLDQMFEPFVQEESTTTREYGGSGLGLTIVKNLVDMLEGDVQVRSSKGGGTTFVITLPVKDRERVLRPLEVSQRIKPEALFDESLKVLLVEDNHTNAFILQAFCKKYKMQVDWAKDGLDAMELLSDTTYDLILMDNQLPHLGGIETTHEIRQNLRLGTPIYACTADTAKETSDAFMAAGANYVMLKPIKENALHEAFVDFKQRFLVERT
T1 sequence (P54300 24-365): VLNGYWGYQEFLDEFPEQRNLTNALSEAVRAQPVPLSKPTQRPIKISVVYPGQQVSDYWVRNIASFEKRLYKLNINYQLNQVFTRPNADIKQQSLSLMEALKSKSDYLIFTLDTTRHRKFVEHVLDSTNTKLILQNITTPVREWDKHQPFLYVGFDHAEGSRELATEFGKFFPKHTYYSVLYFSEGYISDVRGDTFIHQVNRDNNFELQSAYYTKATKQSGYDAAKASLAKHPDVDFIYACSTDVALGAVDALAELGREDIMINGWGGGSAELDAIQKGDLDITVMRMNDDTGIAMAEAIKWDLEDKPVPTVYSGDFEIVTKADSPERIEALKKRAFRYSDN

LuxN, sequence (A7MRY4 whole entry): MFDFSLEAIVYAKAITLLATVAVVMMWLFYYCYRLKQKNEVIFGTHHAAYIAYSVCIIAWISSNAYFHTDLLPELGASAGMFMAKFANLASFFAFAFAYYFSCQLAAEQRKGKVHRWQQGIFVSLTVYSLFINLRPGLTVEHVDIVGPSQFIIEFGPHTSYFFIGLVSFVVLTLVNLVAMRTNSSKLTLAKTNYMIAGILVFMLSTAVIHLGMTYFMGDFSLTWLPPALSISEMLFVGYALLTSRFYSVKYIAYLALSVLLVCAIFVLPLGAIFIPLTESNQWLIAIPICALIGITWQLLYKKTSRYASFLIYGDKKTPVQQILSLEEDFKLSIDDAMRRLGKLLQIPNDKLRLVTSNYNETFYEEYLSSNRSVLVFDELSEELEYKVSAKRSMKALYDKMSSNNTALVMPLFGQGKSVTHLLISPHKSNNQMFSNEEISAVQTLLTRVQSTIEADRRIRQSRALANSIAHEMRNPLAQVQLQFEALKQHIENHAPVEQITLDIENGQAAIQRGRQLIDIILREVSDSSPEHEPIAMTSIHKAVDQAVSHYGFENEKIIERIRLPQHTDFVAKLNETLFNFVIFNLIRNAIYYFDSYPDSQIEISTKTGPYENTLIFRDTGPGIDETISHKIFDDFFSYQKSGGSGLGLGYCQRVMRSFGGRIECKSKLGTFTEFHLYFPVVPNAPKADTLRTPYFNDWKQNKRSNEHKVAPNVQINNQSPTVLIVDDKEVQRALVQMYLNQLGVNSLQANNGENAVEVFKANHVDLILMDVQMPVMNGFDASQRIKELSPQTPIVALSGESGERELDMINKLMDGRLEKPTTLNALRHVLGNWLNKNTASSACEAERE

SMILES | inhibition at 10 µM (LuxN) [%] | IC50 [1] [µM]
C[C@@H](O)CC(=O)N[C@H]1CCOC1=O [HAI-1, N-(3-hydroxybutyryl)-homoserine lactone] | 57 | –
C[C@]12OC[C@H](O)[C@@]1(O)O[B-](O)(O)O2 [AI-2] | – | 5
